Drawing on publication PMC11544189 (Acta Pharmaceutica Sinica. B, 2024), this text covers IC50 for one compound.

The subject of this assay is σ1 receptor. In words: σ[…] protein/BiP dissociation assay. It is filed as cell-based.

SMILES strings stand for the structures.

Regarding `CSC(=S)NCCNC(=O)CCC(=O)Nc1cccc2ccccc12` [Amylovis-201, Methyl (2-{[4-(1-naphthylamino)-4-oxobutanoyl]amino}ethyl)dithiocarbamate], the 50% inhibitory concentration (IC50) (as a rule, the concentration needed to halve the response being measured) came to 362 nM.
